According to the supplement of paper PMC10307832:

What was measured:
Test in all cases: relative viability (nuclei count vs DMSO), 5 days (fraction); higher = more cells survive
Carfilzomib + AZD7762 = compound: CC(C)C[C@H](NC(=O)[C@H](CCc1ccccc1)NC(=O)CN1CCOCC1)C(=O)N[C@@H](Cc1ccccc1)C(=O)N[C@@H](CC(C)C)C(=O)[C@@]1(C)CO1 [Carfilzomib] + NC(=O)Nc1cc(-c2cccc(F)c2)sc1C(=O)N[C@H]1CCCNC1 [AZD7762] (partner 0.2 µM)
How it was run: (§1)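 Lung cancer cell lines were pin-tool dosed in 1536-well plates on the day after seeding, with either a lone drug or a fixed anchor-drug dose plus five library-drug doses (not always all listed) in √10 steps. Nuclei were counted on 4× images after 5 days. Relative viability is the ratio of treated-well to vehicle-well nuclei counts, with each value a median of duplicate plates.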

Carfilzomib + Trametinib = compound: CC(C)C[C@H](NC(=O)[C@H](CCc1ccccc1)NC(=O)CN1CCOCC1)C(=O)N[C@@H](Cc1ccccc1)C(=O)N[C@@H](CC(C)C)C(=O)[C@@]1(C)CO1 [Carfilzomib] + CC(=O)Nc1cccc(-n2c(=O)n(C3CC3)c(=O)c3c(Nc4ccc(I)cc4F)n(C)c(=O)c(C)c32)c1 [Trametinib] (partner 0.02 µM)
How it was run: as §1

Olaparib + Linsitinib = compound: O=C(c1cc(Cc2n[nH]c(=O)c3ccccc23)ccc1F)N1CCN(C(=O)C2CC2)CC1 [Olaparib] + C[C@]1(O)C[C@@H](c2nc(-c3ccc4ccc(-c5ccccc5)nc4c3)c3c(N)nccn32)C1 [Linsitinib] (partner 1 µM)
How it was run: as §1

Crizotinib + Pemetrexed = compound: C[C@@H](Oc1cc(-c2cnn(C3CCNCC3)c2)cnc1N)c1c(Cl)ccc(F)c1Cl [Crizotinib] + Nc1nc2[nH]cc(CCc3ccc(C(=O)N[C@@H](CCC(=O)O)C(=O)O)cc3)c2c(=O)[nH]1 [Pemetrexed] (partner 0.2 µM)
How it was run: as §1

| Cell Line | relative viability (Carfilzomib + AZD7762; first compound 0.001 µM) | relative viability (Carfilzomib + AZD7762; first compound 0.003162 µM) | relative viability (Carfilzomib + AZD7762; first compound 0.01 µM) | relative viability (Carfilzomib + AZD7762; first compound 0.03162 µM) | relative viability (Carfilzomib + AZD7762; first compound 0.1 µM) | relative viability (Carfilzomib + Trametinib; first compound 0.001 µM) | relative viability (Carfilzomib + Trametinib; first compound 0.003162 µM) | relative viability (Carfilzomib + Trametinib; first compound 0.01 µM) | relative viability (Carfilzomib + Trametinib; first compound 0.03162 µM) | relative viability (Carfilzomib + Trametinib; first compound 0.1 µM) | relative viability (Olaparib + Linsitinib; first compound 0.08 µM) | relative viability (Olaparib + Linsitinib; first compound 0.253 µM) | relative viability (Olaparib + Linsitinib; first compound 2.53 µM) | relative viability (Olaparib + Linsitinib; first compound 8 µM) | relative viability (Crizotinib + Pemetrexed; first compound 0.01 µM) | relative viability (Crizotinib + Pemetrexed; first compound 0.03162 µM) | relative viability (Crizotinib + Pemetrexed; first compound 0.1 µM) | relative viability (Crizotinib + Pemetrexed; first compound 0.3162 µM) | relative viability (Crizotinib + Pemetrexed; first compound 1 µM) |
| --- | --- | --- | --- | --- | --- | --- | --- | --- | --- | --- | --- | --- | --- | --- | --- | --- | --- | --- | --- |
| NCI-H1437 | 1.07 | 1.13 | 1.13 | 1.14 | 0.478 | 0.497 | 0.568 | 0.637 | 0.312 | 0.194 | 1.18 | 0.927 | 1.02 | 0.788 | 0.338 | 0.3 | 0.319 | 0.314 | 0.325 |
| NCI-H1651 | 0.372 | 0.471 | 0.457 | 0.208 | 0.0827 | 0.79 | 0.9 | 0.794 | 0.304 | 0.119 | 1.01 | 0.821 | 0.679 | 0.297 | 0.545 | 0.369 | 0.65 | 0.378 | 0.535 |
| NCI-H1666 | 0.837 | 0.935 | 1.1 | 0.704 | 0.475 | 0.907 | 0.852 | 0.988 | 0.72 | 0.513 | 0.901 | 0.841 | 0.75 | 0.655 | 0.826 | 0.814 | 0.87 | 0.808 | 0.82 |
| NCI-H1734 | 0.549 | 0.633 | 0.521 | 0.204 | 0.114 | 0.67 | 0.785 | 0.627 | 0.641 | 0.152 | 0.998 | 0.809 | 0.799 | 0.579 | 0.411 | 0.442 | 0.403 | – | 0.395 |
| NCI-H1755 | 0.476 | 0.502 | 0.496 | 0.435 | 0.409 | 0.809 | 0.837 | 0.668 | 0.769 | 0.511 | 1.03 | 0.917 | 0.92 | 0.918 | 0.373 | 0.44 | 0.382 | 0.445 | 0.408 |
| NCI-H1792 | – | 0.96 | 0.742 | 0.38 | 0.0881 | – | 0.456 | 0.451 | 0.396 | 0.174 | 0.7 | 0.46 | 0.421 | 0.324 | 0.829 | 1.06 | 0.847 | – | 0.871 |
| NCI-H1915 | 0.61 | 0.711 | 0.57 | 0.414 | 0.125 | 0.266 | 0.302 | 0.295 | 0.289 | 0.106 | 1.14 | 1.02 | 0.734 | 0.651 | 0.455 | 0.431 | 0.506 | 0.455 | 0.482 |
